According to a melting point compilation (Tetko et al.; mined from patent text by program, amines drawn as free bases though some values may be those of a salt):

Structure (SMILES)	melting point [°C]
O=C(c1ccccc1)c1cnn2c1NCCC2c1ccncc1 (centres undefined)	186 to 189
O=C(C#Cc1ccc(CN2CCCCC2)cc1)Nc1ccc(-c2ccc(Cl)cc2)cc1	180
CCCC(O)P(=O)(O)CCCN (centres undefined)	188
N#CC(C(=O)c1cc(F)c(Cl)cc1Cl)=C(N)C1CC1	95
C=CC(=O)Nc1ccc2ncnc(Nc3ccc(Oc4ccccc4)cc3)c2c1	185 to 191
Cc1c(C(=O)O)cnn1-c1cccc(Cl)c1	145
COc1cc(CS(=O)c2ccc(O)cc2)cc(OC)c1OC (centres undefined)	153
COc1ccc2cc(C(C)C(=O)OCc3ccc(OC(=O)OCC[Si](C)(C)C)cc3)ccc2c1 (centres undefined)	58 to 59
NC(=O)c1cnn2c1NCC=C2c1cccnc1	182 to 184
O=C(/C=C/c1ccc2ccccc2c1)N1CCOC1=O	121 to 123
NS(=O)(=O)Oc1cccc(-n2cnc(-c3ccccc3)c2)c1	209 to 211
Nc1nc(N)nc(-c2ccc(NS(=O)(=O)c3ccccc3)cc2)n1	197 to 199
C#CCON=Cc1c(C(=O)OC)[nH]c2c(C)ccc(C)c12	113 to 114
CCCCCC(CC(=O)Nc1cc(C(N)=O)ccc1C(C)(C)C)c1ccc(C(=O)O)cc1OC (centres undefined)	204 to 206
CC(C)c1ccc(Cn2nnnc2-c2ccc(OC(=O)C(C)(C)C)cc2)cc1	111 to 113
COc1ccc(N2CCN(c3ccc(-n4cnn(C)c4=O)cc3)CC2)cc1	246
CCn1c(=O)c2[nH]c(/C=C/c3cccc(Cl)c3)nc2n(CC)c1=O	> 280
CC(COC(=O)NC(=O)C(c1ccccc1)c1ccccc1)c1ccccc1 (racemic)	131
CN(C)CCNc1ccc2c3c(nn2C)-c2ccncc2C(=O)c13	212 to 216
C=CC(=O)Oc1ccc(N2C(=O)C(=C(C)C)/C(=C(/C)c3c(C)n(C)c4ccccc34)C2=O)cc1	172 to 174
CN1CCN(c2cc3c(c(N)c2F)c(=O)c(C(=O)O)cn3C2CC2)CC1	216 to 218
Cc1ccc(NC(N)=S)c(O)c1	175 to 177
COC(=O)c1cc(Cl)ccc1NC(=O)c1cc(OC)c(OC)c(OC)c1	179 to 180

Structure (SMILES)	melting point [°C]
O=C(Cl)N1CC(Oc2ccc(F)cc2Cl)C1	93 to 94
CCC(O)(CC)CCN1CCC(c2noc3cc(F)ccc23)CC1	50 to 53
CCCCCCCCOc1ncc(-c2ccc(OC(=O)[C@H]3CCCO3)cc2)cn1	75
O=c1oc2cc(O)c(O)cc2c(O)c1C1=CCOc2oc3ccccc3c(=O)c21	258 to 260
O=C(Cc1c(-c2ccccc2)nn(-c2ccccc2)c1-c1ccccc1)Oc1ccccc1C(=O)O	190 to 191
N#Cc1cc(C(F)(F)F)nn1-c1ccc(NC(=O)c2ccncc2F)cc1	161 to 162
O=C(NCC(F)(F)F)c1ccc(C2=NOC(c3cc(Cl)cc(Cl)c3)(C(F)(F)F)C2)cc1 (centres undefined)	94 to 96
O=C(O)c1ccc2c(c1)CCc1ccc(Br)cc1C2=O	218 to 219
ClC(Cl)(Cl)c1cccc2nnsc12	67 to 69
Nc1cc[nH]c(=O)c1Br	255 to 258
O=C(O)c1ccc(CNC=C2C(=O)c3ccccc3OC2c2ccccc2)cc1 (centres undefined)	195 to 200
Clc1ccc(-c2onc3c(CBr)cc(Cl)cc23)cc1	145 to 147
CN(Cc1ccccc1)C1c2ccccc2CC1O (centres undefined)	64
CCOC(=O)N1CCC(NC(=O)c2ccccc2)C12CCCCC2 (centres undefined)	132 to 133
CCOC(=O)c1ccc(N=C(Nc2ccc(C(=O)OCC)cc2)c2ccc(C)cc2)cc1	246 to 260
CNc1ccnc2c1c(=O)n(C)c(=O)n2C	179 to 180
O=C(NC(Cc1ccc(NCc2ccccc2)cc1)C(=O)O)c1cn2cc(-c3ccc(Cl)cc3)ccc2n1 (centres undefined)	260
O=C1c2cc(Cl)c(Cl)cc2CN2C(=NO)CCC12 (centres undefined)	245 to 246
COc1ccc(C(C#Cc2ccccc2)CC(C)=O)cc1OC1CCCC1 (racemic)	62 to 64
Cc1cccc(C(=O)O)c1-c1ccc(C(F)(F)F)cc1	202 to 203
COc1cccc2c(Nc3ccccc3C)c(C(=O)C(C)C)cnc12	116 to 118
CCCCOCCOc1ccc(-c2ccc3c(c2)C=C(C(=O)Nc2ccc(SCc4nncn4CCC)c(C)c2)CCN3CC(C)C)cc1	104 to 107

Further lines, results first:

melting point [°C]	Structure (SMILES)
135 to 137	CC(Cl)(Cl)C(NC(=O)c1ccc(Cl)cc1)NC(=NC#N)Nc1cccnc1Cl (centres undefined)
163 to 164	CS(=O)(=O)c1ccc(C2=C(c3ccc(C#N)cc3)CCC2)cc1
138 to 141	O=C1CCCN1CCCn1cnc2cnc3cc(-c4ccccc4)ccc3c21
266 to 270	O=C(Nc1c[nH]nc1C(=O)NCCc1ccc(Br)cc1)c1ccccn1
148 to 149	CC1=C(Cc2ccc(NC(=O)OC(C)(C)C)cc2)C(=O)C2C=CC=CC2C1=O (centres undefined)
263	O=C(O)c1cnn2c(C(F)F)cc(-c3ccc(Cl)c(Cl)c3)nc12
124 to 126	COc1ccc(N2CCCn3c2nc2c(Cl)ccc(C(OCC(F)F)C4CC4)c23)c(C)n1 (centres undefined)
223 to 226	NC(=O)c1ccc(Nc2ccncc2)cc1
124 to 127	CCOC(=O)C1=C(C)NC(c2nccn2C)=NC1c1ccccc1Cl (centres undefined)
142 to 143	COc1cc(-c2ncn(C)c2-c2scc(OC)c2OC)cc(OC)c1OC
159	COc1ccc(CN2C(=O)C(C)(c3cc(N(S(C)(=O)=O)S(C)(=O)=O)ccc3Cl)c3cc(Cl)ccc32)c(OC)c1 (centres undefined)
77 to 79	CCOC(=O)C1(CS(=O)(=O)c2ccc(OC)cc2)CO1 (centres undefined)
239 to 240	COc1cc(Nc2c(C#N)cnc3cc(-c4ccc(CN5CCC(CC(=O)O)CC5)cc4)ccc23)c(Cl)cc1Cl
98 to 100	CS(=O)c1cc(Br)nc(Br)c1 (centres undefined)
163	CCCCCCCc1ccc(-c2ccc(C(=O)O)cc2)cc1
257 to 259	O=C(O)/C=C/c1ccc(-c2ccc(O)c(C34CC5CC(CC(C5)C3)C4)c2)c(Cl)c1
156 to 157	O=C(N[C@H](Cc1ccc(C(F)(F)F)cc1)[C@@H](O)c1cccc2ccccc12)C1CCCCC1 (racemic)
95	CCC[C@@H](C)C(C(=O)O)C(=O)O
124	Cn1cc2c(C(F)(F)F)cc(Cl)nc2n1
220 to 222	O=C(NCc1ccc(F)cc1-n1cncn1)c1nc2n(c(=O)c1O)CCN2CCO
46	CCCCCc1cnc(-c2ccc(N=C=S)cc2)nc1
79	CC1(C2=C(O)C(=O)c3ccccc3C2=O)CCCCC1
224 to 226	Cc1ccc(-n2c(-c3cc(-c4ccc(Cl)cc4)c(N4CCOCC4)s3)nc3ccccc3c2=O)cc1
134 to 136	OC(Cc1cc(-c2ccccc2)on1)N1CCOCC1 (centres undefined)
92 to 94	COc1ccc(Cn2cnc(C(=N)C#N)c2N)cc1
87.5 to 88	COc1ccc(-n2nc(CCCO)cc2-c2ccc(Cl)cc2)cc1
114 to 115	CCOC(=S)c1cccc2nnsc12

melting point [°C]	Structure (SMILES)
204 to 205	COc1cc(OC)c2c(=O)[nH]c(-c3cc(C)c(OCCN4CCC4)c(C)c3)nc2c1
110	CN[C@@H]1COc2cc(Cl)cc(-c3ccc(Cl)cc3C)c2O1
239	Cc1nnc(-c2ccc(O)cc2)o1
108 to 113	O=C(NCC12CC3CC(CC(C3)C1)C2)c1cc(-c2c(F)cccc2C(=O)O)ccc1Cl
148 to 150	CN(C)CCCNC(=O)c1ccc(-c2ccc3nnn(Cc4ccc5ncccc5c4)c3n2)cc1F
82 to 83.5	CNC(=C[N+](=O)[O-])NCCOc1cccc(CCCN(C)C)c1
117 to 118	O=C(NOCC(O)CO)c1ccc(F)c(F)c1Nc1ccc(I)cc1F (centres undefined)
215 to 217	Cc1cc2c3c(ccc2cc1C#N)OC(=O)C3(C)C
156	Nc1cccc(-c2cccc(-c3nc(-c4ccc(C(F)(F)F)cc4)cc(C(F)(F)F)n3)c2)c1
207 to 209	CN1C(=O)CC[C@]2(C)c3ccc(Sc4nc5c(Cl)cccc5s4)cc3CC[C@@H]12
167	O=C1CCCc2nc3ccccc3c(NCc3ccccc3C(F)(F)F)c21
230 to 232	O=C(O)c1c[nH]c(=S)n1C1Cc2cc(F)cc(F)c2C1 (centres undefined)
70 to 73	OC1CSC(Oc2ccccc2-n2ccc3ccccc32)C(O)C1O (centres undefined)
85 to 88	CCCc1cc(F)c2oc(Cc3ccc(OC)cc3)c(C)c2c1OC(=O)OCC
248 to 250	C[C@@H](Nc1ncnc2[nH]c(-c3ccc(CN4CCN(C)CC4)cc3)cc12)c1ccccc1
144	OC1(Cn2cncn2)C(=Cc2ccc(Cl)cc2)CCCC1C1CCCCC1 (centres undefined)
195 to 210	COC(=O)c1ccc(-c2nc3cc(C(=O)OC)ccc3o2)cc1
69 to 71	COc1cc2c(c(C(C)C)c1OC)C(=O)N(CSc1nnnn1-c1ccccc1)S2(=O)=O
199 to 201	CNC(=S)Nc1ccc(Oc2sc(C(N)=O)c3c2-c2c(cnn2C)CC3)cc1
101 to 103	CCc1cccc2c3c([nH]c12)C(CC)(CC=N)OCC3 (centres undefined)
124 to 126	CCOC(=O)c1ccc(-c2nn(Cc3ccc(Cl)s3)c3ccccc23)o1
208 to 210	CC(=O)N[C@@H]1c2cnccc2OC(C)(C)[C@H]1O (relative stereo)
126 to 128	COC(=O)Cc1coc(-c2cc(C(C)(C)C)c(O)c(C(C)(C)C)c2)n1
154 to 155	Cc1cccc(-c2nc3cccnn3c2-c2ccnc(N[C@@H](C)c3ccccc3)c2)c1
216	Cc1c(C(=O)Cl)c(C)c2cccc(C)c2c1C
96 to 97.5	Cn1c(SCC(=O)C23CC4CC(CC(C4)C2)C3)nnc1C1CC1
156 to 157	CC(C)(C)NCC(O)COc1ccc2oc(-c3ccc(OCc4ccccc4)c(OCc4ccccc4)c3)cc(=O)c2c1 (centres undefined)
